{
  "source": "patent US11897898B2",
  "about": "“Pyridine macrocycle compounds as ASK1 inhibiting agents” (BIOGEN MA INC., priority 2018, dated 2024)",
  "key": {"[1]": {"target": "T1, ASK1 T838 auto phosphorylation (Homo sapiens, UniProt Q99683)", "T1 construct": "ASK1-V5 tagged full length plasmid; expressed in transfected cells; host or cells: HEK-293T", "T1 sequence (Q99683 1-1374)": "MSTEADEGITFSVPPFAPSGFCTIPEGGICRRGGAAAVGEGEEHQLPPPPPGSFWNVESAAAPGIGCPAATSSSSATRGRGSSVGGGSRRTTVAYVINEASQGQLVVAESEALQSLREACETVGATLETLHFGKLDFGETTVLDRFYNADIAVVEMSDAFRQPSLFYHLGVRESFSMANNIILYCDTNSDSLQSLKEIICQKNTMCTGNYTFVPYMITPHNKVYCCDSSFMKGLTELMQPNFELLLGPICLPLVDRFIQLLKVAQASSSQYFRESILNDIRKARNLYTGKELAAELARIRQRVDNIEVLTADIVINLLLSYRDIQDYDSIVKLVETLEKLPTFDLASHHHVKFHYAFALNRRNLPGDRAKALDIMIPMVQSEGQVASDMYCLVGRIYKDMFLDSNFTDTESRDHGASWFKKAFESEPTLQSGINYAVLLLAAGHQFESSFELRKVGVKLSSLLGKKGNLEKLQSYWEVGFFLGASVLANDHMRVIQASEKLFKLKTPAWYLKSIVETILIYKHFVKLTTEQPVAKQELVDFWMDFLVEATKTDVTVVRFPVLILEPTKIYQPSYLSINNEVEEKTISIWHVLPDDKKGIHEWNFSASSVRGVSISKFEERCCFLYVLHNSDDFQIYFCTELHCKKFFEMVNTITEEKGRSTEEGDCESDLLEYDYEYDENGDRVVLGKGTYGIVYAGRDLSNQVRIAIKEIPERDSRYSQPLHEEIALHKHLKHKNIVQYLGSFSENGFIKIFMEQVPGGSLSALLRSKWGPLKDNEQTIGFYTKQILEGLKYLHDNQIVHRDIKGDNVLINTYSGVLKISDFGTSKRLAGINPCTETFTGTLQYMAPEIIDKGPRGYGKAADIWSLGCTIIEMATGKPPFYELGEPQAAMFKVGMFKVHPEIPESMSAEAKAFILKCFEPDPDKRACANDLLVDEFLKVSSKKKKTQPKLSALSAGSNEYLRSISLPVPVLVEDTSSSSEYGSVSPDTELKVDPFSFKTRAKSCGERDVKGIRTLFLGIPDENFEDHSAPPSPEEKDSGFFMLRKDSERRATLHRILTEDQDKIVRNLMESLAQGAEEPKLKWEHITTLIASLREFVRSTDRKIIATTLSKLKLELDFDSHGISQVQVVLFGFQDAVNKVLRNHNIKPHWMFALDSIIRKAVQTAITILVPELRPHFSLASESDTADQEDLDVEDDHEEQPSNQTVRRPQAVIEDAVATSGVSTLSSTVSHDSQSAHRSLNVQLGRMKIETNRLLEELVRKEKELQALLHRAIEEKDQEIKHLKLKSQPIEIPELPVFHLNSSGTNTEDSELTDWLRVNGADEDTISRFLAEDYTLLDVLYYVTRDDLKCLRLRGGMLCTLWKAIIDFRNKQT", "experiment": "ASK1 (AUTO PHOS T838) assay in HEK-293T cells, MSD format", "assay_type": "cell-based", "details": "HEK-293T cells transfected with ASK1-V5, 1 hr compound incubation; class symbols", "method": "ASK1 T838 auto phosphorylation was measured in HEK-293T cells using MSD assay format. HEK 293T cells were seeded in 15 cm plates at a density of 18 million cells and 20 mL DMEM with 10% FBS, Pen/Strep media. The plates were incubated at 37° C. overnight. Media on plates was changed to OPTI-MEM, serum free media and cells were transfected with 9 μg of ASK1-V5 tagged full length plasmid using Lipofectamine 2000 (Invitrogen) and the plates were incubated at 37° C. overnight. Cells were trypsinized, counted on Nexcellometer and plated into 96 well tissue culture plates with 100,000 cells/well and 200 μL media. Cells were incubated for 4 hr at 37° C. then ASK1 compounds were added using a HP 300e. Compounds were tested at 20 μM with 3 fold, 10 point dilution points then incubated for 1 hr at 37° C. A lysis buffer (Cell Signaling) was prepared with protease and phosphatase inhibitor and maintained at 4° C. until use. Media from cells was discarded and 120 μL of cold lysis buffer was added to the cells, the plate was shaken 4° C. for 1 hr. Lysate was mixed using Apricot liquid handler; aspirating up and down 16 times at high speed using 50 μL volume. 50 μL of cell lysates were transferred to a pre-coated MSD plates containing mouse anti-V5 antibody (1:500 dilution) and washed 3× with MSD wash buffer (TBST) and blocked with a 3% BSA solution. Plates were then incubated on a plate shaker overnight at 4° C. Plates were washed 3× with MSD wash buffer and 50 μL of rabbit anti-pASK1 T838 antibody was added to the wells and incubated for 2 hr at room temperature on a plate shaker. Plates were then washed and 50 μL of goat anti-rabbit sulfa-tag (1:500 dilution) was added to wells, and incubated for 1 hr at room temperature on a plate shaker. Plates were washed 3× and 150 μL of 2×MSD Read buffer was added to wells. Plates were immediately read on a MSD Instrument Reader where chemoluminecense signal was measured. Data was analyzed using Graph Pad or Genedata, the data was normalized and plotted, % activity versus log of compound concentration. The IC50 values were obtained from a 4 parameter fit."}, "[2]": {"experiment": "In vivo brain penetration (rat Kpuu study)", "details": "brain and plasma (unbound), IV infusion in the carotid artery for four hours, 1 mg/kg, steady state, Kpuu=Cu,b/Cu,p", "method": "To evaluate the CNS penetration of the compounds described herein, several compounds were selected for in vivo rat Kpuu studies. In these experiments the compounds are administered via an IV infusion (using N,N-dimethylacetamide:ethanol:1,2-propylene glycol:water in a 1:1:3:5 ratio as the vehicle) in the carotid artery for a period of four hours (1 mg/kg, 0.1 mg/mL) to reach steady state. After this time the plasma and brain concentration levels are quantified, and the values are adjusted by the measured protein binding in plasma and brain homogenate to calculate the Kpuu (see Di, L.; Kerns, E. H. Blood-Brain Barrier in Drug Discovery (Wiley)) according to the equation below. Kpuu=Cu,b/Cu,p • Wherein: • Cu,b=Unbound concentration in brain (C×fu,b). (C=concentration at steady state; fu,b=fraction unbound in brain) • And in which: Cu,p=Unbound concentration in plasma (C×fu,p). (C=concentration at steady state; fu,p=fraction unbound in plasma)\nPlasma and brain protein binding values were generated via the Rapid Equilibrium Dialysis method. The compound of interest was incubated in K2EDTA plasma and brain homogenate (homogenized 1:7 (w:v) in 1×PBS) purchased from BioIVT (Westbury, N.Y.), opposite a buffered compartment of 100 mM Potassium phosphate/150 mM Sodium chloride, pH 7.4, at 1 μM for 4 hr and 6 hr respectively. At the conclusion of incubation samples were taken from both matrix and buffered compartments, matrix-matched using blank buffer and matrix, extracted with acetonitrile, diluted with water, and analyzed utilizing an Agilent RapidFire 365 high-throughput LC coupled with MS/MS detection via an AB Sciex 5500. Free fractions (fu) were then calculated by comparing internal standard/analyte peak-area ratios of matrix and buffered compartments. Cross-species brain protein binding was considered to be equivalent for the purposes of calculating free fraction (see Di, L., et al., (2011a) Species Independence in Brain Tissue Binding Using Brain Homogenates, Drug Metab Dispos 39:1270-1277).\nTotal drug concentration in plasma and brain tissue was measured via well-established bioanalytical extraction (protein precipitation) and detection methods (LC-MS/MS). Brain tissues were homogenized 1:4 (w:v) with 1×PBS in MP Biomedicals Lysing Matrix D tubes via an MP Biomedicals FastPrep-24™ homogenizer and were then extracted alongside plasma samples by matrix-matching with blank K2EDTA plasma (purchased from BioIVT), followed by protein crash/extraction with acetonitrile, supernatant dry down under nitrogen, and reconstitution with an acidified aqueous/organic mixture before being measured against a calibration curve of the compound of interest prepared in plasma, matrix-matched with blank brain homogenate (generated with brains purchased from BioIVT), and similarly extracted. Reconstituted extracts were then analyzed via LC-MS/MS (AB Sciex 5500) utilizing a binary HPLC setup (Shimadzu LC-20ADvp) and reverse-phase chromatography gradient (ACE 3 C18-AR). Peak area ratios and a 1/x^2 regression fit were used to generate sample concentration values that, combined with plasma and brain protein binding values, were used to generate free drug concentration values and partitioning coefficient (Kpuu)."}, "ASK1/MAP3K5": {"target": "T2, ASK1/MAP3K5 (Homo sapiens, UniProt Q99683)", "T2 construct": "purchased Reaction Biology Corp. (Malvern, Pa.)", "T2 sequence (Q99683 1-1374)": "T1 sequence (Q99683 1-1374)", "experiment": "ASK1 enzyme assay (ASK1/MAP3K5 assay by Reaction Biology Corp., 33P-ATP filter-binding)", "assay_type": "biochemical", "details": "20 μM myelin basic protein and 10 μM ATP; class symbols", "method": "The protein kinase inhibitory activity of the compounds described herein were tested using the ASK1/MAP3K5 assay by Reaction Biology Corp. (Malvern, Pa.). The assay procedure follows (and is also available on the Reaction Biology Corp. website). • Base Reaction Buffer: 20 mM Hepes (pH 7.5), 10 mM MgCl2, 1 mM EGTA, • 0.02% Brij35, 0.02 mg/mL BSA, 0.1 mM Na3VO4, 2 mM DTT, 1% DMSO; • Substrate: 20 μM of myelin basic protein (MBP) and 10 μM ATP; • Protein kinase: ASK1/MAP3K5. • Reaction Procedure: • 1. Prepare indicated substrate in freshly prepared Base Reaction Buffer. • 2. Deliver any required cofactors to the substrate solution. • 3. Deliver indicated kinase into the substrate solution and gently mix. • 4. Deliver compounds in DMSO into the kinase reaction mixture by Acoustic; technology (Echo550; nanoliter range), incubate for 20 minutes at room temperature. • 5. Deliver ^33P-ATP (specific activity 10 μCi/μL) into the reaction mixture to initiate the reaction. • 6. Incubate kinase reaction for 2 hours at room temperature. • 7. Reactions are spotted onto P81 ion exchange paper. • 8. Detect kinase activity by filter-binding method."}},
  "data": [
    {"smiles": "Cc1ccc(-c2cnc3c(c2)C(=O)Nc2cccc(n2)-c2nncn2[C@@H](C)CCCO3)cn1", "note": "[Compound 19, (S)-10-Methyl-5^5-(6-methylpyridin-3-yl)-1^4H-6-oxa-3-aza-2(2,6),5(3,2)-dipyridina-1(3,4)-triazolacyclodecaphan-4-one]", "values": [
      {"measurement": "IC50", "setting": "[1]", "result": "≤ 100", "unit": "nM"},
      {"measurement": "Kp uu at 4 h", "setting": "[2]", "result": "< 0.1"}
    ]},
    {"smiles": "C[C@H]1CCCOc2ncc(N3CCN(C)CC3)cc2C(=O)Nc2cccc(n2)-c2nncn21", "note": "[Compound 10, (S)-10-Methyl-5^5-(4-methylpiperazin-1-yl)-1^4H-6-oxa-3-aza-2(2,6),5(3,2)-dipyridina-1(3,4)-triazolacyclodecaphan-4-one]", "values": [
      {"measurement": "IC50", "setting": "[1]", "result": "≤ 100", "unit": "nM"},
      {"measurement": "Kp uu at 4 h", "setting": "[2]", "result": "< 0.1"}
    ]},
    {"smiles": "C[C@H]1CCCOc2ncc(C(C)(C)O)cc2C(=O)Nc2cccc(n2)-c2nncn21", "note": "[Compound 39, (S)-5^5-(2-Hydroxypropan-2-yl)-10-methyl-1^4H-6-oxa-3-aza-2(2,6),5(3,2)-dipyridina-1(3,4)triazolacyclodecaphan-4-one]", "values": [
      {"measurement": "IC50", "setting": "[1]", "result": "100 to 1000", "unit": "nM"},
      {"measurement": "IC50", "setting": "ASK1/MAP3K5", "result": "≤ 100", "unit": "nM"}
    ]},
    {"smiles": "C[C@H]1CCCOc2ncc(OCCN(C)C)cc2C(=O)Nc2cccc(n2)-c2nncn21", "note": "[Compound 44, (S)-5^5-(2-(Dimethylamino)ethoxy)-10-methyl-1^4H-6-oxa-3-aza-2(2,6),5(3,2)-dipyridina-1(3,4)-triazolacyclodecaphan-4-one]", "values": [
      {"measurement": "IC50", "setting": "[1]", "result": "≤ 100", "unit": "nM"},
      {"measurement": "IC50", "setting": "ASK1/MAP3K5", "result": "≤ 100", "unit": "nM"}
    ]}
  ]
}
